Measurements published in ChEMBL document CHEMBL5303761, “Data for DCP probe BI-3231” (2023).

Tests used:
[1] = target: 5-hydroxytryptamine receptor 6 (Homo sapiens) (UniProt P50406); details: Compound concentration 10.0 uM
[2] = target: T1, Muscarinic acetylcholine receptor M1 (Homo sapiens) (UniProt P11229); details: Compound concentration 10.0 uM
T1 sequence (whole entry): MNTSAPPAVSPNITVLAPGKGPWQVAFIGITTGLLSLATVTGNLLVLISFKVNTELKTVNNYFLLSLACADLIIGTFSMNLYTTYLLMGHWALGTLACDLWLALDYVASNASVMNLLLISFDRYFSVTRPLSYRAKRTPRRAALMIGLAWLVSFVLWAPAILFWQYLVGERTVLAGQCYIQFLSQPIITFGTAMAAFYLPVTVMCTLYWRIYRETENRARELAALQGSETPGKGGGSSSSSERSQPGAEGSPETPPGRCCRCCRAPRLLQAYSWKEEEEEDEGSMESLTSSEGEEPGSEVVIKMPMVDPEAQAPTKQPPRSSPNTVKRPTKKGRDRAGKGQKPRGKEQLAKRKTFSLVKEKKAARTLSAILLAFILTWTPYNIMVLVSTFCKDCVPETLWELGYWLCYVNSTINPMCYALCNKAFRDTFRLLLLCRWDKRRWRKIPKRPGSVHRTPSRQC

[3] = target: D(1A) dopamine receptor (Homo sapiens) (UniProt P21728); details: Compound concentration 10.0 uM
[4] = target: 5-hydroxytryptamine receptor 2C (Homo sapiens) (UniProt P28335); details: Compound concentration 10.0 uM
[5] = target: Estradiol 17-beta-dehydrogenase 11 (Homo sapiens, UniProt Q8NBQ5); assay: Enzymatic assay (hHSD17B11); format: functional
[6] = target: Beta-1 adrenergic receptor (Homo sapiens) (UniProt P08588); details: Compound concentration 10.0 uM
[7] = target: 17-beta-hydroxysteroid dehydrogenase 13 (Mus musculus, UniProt Q8VCR2); assay: Enzymatic assay (mHSD17B13); format: functional
MAO-A = MAO-A (Rattus norvegicus, UniProt P21396); assay: MAO-A_ANTAG Eurofins SafetyScreen44 (BI); design: scale not given: the % may be the effect or the level left; details: compound concentration 10 uM, read-out: % Ctrl
[8] = target: Kappa-type opioid receptor (Homo sapiens) (UniProt P41145); details: Compound concentration 10.0 uM
Kappa-type opioid receptor (Homo sapiens), sequence (P41145 whole entry): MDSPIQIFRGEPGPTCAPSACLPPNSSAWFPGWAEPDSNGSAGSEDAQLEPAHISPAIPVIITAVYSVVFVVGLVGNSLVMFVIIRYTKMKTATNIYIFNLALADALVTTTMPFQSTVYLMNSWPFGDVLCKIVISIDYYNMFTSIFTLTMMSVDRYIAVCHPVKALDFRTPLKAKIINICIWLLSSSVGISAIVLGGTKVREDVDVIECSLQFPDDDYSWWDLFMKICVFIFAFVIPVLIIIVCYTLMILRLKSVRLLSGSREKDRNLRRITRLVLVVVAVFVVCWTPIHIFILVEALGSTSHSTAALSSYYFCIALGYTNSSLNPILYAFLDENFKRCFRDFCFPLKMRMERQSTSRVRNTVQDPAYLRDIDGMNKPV

Beta-1 adrenergic receptor (Homo sapiens), sequence (P08588 whole entry, looked up): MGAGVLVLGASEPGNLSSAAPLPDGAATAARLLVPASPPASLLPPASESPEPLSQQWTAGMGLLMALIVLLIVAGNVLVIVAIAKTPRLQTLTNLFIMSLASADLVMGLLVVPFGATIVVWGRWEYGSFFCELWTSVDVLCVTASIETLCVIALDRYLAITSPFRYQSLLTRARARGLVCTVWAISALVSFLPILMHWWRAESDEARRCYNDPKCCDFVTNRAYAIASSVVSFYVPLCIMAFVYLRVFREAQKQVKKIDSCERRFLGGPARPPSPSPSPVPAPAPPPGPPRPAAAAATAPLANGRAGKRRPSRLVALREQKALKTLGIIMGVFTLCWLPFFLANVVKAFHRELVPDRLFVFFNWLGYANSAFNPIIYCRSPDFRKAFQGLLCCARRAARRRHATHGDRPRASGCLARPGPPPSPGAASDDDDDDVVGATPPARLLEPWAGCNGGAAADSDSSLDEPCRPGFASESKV
5-hydroxytryptamine receptor 2C (Homo sapiens), sequence (P28335 whole entry): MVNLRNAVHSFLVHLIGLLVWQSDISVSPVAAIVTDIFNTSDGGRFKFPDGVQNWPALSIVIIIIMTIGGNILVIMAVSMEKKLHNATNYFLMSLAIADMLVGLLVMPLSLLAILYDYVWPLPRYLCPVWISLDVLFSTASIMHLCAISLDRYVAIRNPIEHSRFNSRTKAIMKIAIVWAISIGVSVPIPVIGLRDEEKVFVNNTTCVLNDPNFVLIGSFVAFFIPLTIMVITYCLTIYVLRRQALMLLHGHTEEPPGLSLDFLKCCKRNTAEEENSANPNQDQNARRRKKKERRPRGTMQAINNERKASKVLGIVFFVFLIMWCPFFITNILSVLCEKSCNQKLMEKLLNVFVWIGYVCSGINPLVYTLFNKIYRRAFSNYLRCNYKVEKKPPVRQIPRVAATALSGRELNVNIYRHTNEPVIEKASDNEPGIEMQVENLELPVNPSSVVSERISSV
D(1A) dopamine receptor (Homo sapiens), sequence (P21728 whole entry): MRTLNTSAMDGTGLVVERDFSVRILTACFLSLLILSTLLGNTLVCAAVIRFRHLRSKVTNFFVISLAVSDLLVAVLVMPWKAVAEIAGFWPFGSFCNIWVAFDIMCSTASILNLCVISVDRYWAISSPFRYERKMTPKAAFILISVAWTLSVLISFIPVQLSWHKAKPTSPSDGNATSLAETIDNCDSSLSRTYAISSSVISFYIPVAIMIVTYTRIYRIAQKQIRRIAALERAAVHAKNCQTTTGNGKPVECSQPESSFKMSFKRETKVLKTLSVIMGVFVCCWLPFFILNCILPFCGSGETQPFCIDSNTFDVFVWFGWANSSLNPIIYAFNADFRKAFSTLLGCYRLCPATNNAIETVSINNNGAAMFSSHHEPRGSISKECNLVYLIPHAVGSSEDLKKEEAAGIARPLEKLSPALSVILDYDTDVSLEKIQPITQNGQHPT
5-hydroxytryptamine receptor 6 (Homo sapiens), sequence (P50406 whole entry): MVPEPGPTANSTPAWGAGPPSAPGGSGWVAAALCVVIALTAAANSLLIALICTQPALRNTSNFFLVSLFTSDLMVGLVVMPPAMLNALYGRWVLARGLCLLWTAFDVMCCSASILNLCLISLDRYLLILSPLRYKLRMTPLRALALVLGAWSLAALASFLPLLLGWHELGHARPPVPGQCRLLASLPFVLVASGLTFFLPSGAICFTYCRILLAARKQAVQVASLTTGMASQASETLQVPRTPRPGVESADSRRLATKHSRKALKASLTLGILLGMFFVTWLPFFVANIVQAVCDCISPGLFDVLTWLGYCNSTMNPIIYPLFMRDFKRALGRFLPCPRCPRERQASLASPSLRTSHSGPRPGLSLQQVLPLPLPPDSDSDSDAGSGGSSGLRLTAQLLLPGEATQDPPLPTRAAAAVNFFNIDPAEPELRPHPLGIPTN
Estradiol 17-beta-dehydrogenase 11, sequence (Q8NBQ5 whole entry): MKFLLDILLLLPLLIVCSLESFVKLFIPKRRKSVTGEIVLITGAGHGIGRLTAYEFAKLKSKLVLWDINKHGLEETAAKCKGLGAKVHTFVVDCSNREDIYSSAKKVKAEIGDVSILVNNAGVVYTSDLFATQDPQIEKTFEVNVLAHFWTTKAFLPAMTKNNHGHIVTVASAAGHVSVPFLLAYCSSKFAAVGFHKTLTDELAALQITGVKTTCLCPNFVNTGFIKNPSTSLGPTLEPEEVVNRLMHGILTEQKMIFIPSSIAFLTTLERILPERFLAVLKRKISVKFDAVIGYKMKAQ
17-beta-hydroxysteroid dehydrogenase 13, sequence (Q8VCR2 whole entry): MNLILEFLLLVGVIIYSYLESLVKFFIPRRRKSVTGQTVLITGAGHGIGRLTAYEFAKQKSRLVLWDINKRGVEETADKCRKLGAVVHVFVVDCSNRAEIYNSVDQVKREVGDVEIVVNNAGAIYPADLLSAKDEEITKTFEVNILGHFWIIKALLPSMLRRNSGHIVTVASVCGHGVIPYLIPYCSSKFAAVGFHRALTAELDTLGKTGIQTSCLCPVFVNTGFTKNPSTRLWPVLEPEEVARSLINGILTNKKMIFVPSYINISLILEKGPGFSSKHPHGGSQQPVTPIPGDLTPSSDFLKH
MAO-A, sequence (P21396 whole entry): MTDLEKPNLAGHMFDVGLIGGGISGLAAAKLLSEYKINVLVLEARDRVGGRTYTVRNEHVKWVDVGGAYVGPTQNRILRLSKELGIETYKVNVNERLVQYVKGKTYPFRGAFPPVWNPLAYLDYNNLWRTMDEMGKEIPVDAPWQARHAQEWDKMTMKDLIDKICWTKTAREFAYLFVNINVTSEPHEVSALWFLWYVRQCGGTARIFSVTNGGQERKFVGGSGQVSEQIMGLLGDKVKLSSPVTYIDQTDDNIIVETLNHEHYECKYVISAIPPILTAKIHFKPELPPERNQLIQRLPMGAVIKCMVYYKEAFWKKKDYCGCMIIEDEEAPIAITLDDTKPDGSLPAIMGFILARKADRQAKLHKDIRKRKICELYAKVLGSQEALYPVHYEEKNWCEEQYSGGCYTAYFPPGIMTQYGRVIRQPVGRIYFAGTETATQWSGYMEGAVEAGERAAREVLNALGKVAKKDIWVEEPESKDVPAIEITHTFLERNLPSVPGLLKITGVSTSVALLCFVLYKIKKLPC

inhibition [1] [%]	inhibition [2] [%]	inhibition [3] [%]	inhibition [4] [%]	IC50 [5]	inhibition [6] [%]	Ki [7]	inhibition [8] [%]	SMILES	activity at 10 µM (MAO-A)
0.69	5.93	-6.39	-2.92	–	–	–	–	CCn1c(=O)c(C)cn(Cc2nnc(-c3ccc(F)c(O)c3F)s2)c1=O	–
–	–	–	–	> 10 µM (not active)	-1.07	> 10 µM (not active)	11.7	CCn1c(=O)c(C)cn(Cc2nnc(-c3ccc(F)c(OC)c3F)s2)c1=O	88% (not active)
